Patent US20090197891A1, “Use of (4-Alkylpiperazinyl)(phenyl) methanones in the treatment of alzheimer's disease” (priority 2004, published 2009)
Entries after “also recorded” stand apart in the source; their conditions may differ.

Assays:
Format in all cases: cell-based, rat
PC12 cells [1] = experiment: Aβ1-42-induced neurotoxicity, cell viability by MTT assay
Experimental: (§1) PC12 cells (rat pheochromocytoma) (ATCC, Manassas, Va.) were cultured in RPMI 1640 without glutamine medium containing 10% of bovine serum and 5% of horse serum at 37° and 5% CO2. These cells respond reversibly to NGF by induction of the neuronal phenotype. PC12 cells were incubated for 24 hours in 96-well plates (5.10^4 cells per well) with increasing concentrations (1, 10 and 100 μM) of procaine, procainamide, lidocaine, tetracaine, SP015, SP016, SP017 or SP008. Aβ1-42 was incubated overnight at 4° C. and then added to the cells at 0.1, 1 or 10 μM final concentrations for a 24 hours time period.
(§2) The cellular toxicity of Aβ was assessed using the 3-(4,5-dimethylthiazol-2-yl)-2,5-diphenyl tetrazolium bromide (MTT) assay (Trevigen, Gaithersburg, Md.) as previously described (Lecanu et al. (2004) Steroids, 69: 1-16). Briefly, 10 μl of the MTT solution were added to the cells cultured in 100 μl of medium. After an incubation period of 4 hours in the same conditions as above, 100 μl of detergent were added and cells incubated overnight at 37° C. The blue coloration was quantified at 600 nm and 690 nm using the Victor spectrophotometer (EGG-Wallac, Gaithersburg, Md.). The effect of Aβ1-42 was expressed as (DO600-DO690). To compare the protective effect of the compounds tested, the decrease of MTT signal observed with Aβ1-42 was considered to be the 100% inhibition of the NADPH diaphorase activity and the effect of the compounds tested is shown as an increase or decrease of this percentage.

PC12 cells [2] = experiment: Aβ1-42-induced ATP depletion, ATPLite-M assay; details: for protective effect on mitochondrial function / ATP content: compound at 1 μM
Experimental: as §1
ATP concentrations were measured using the ATPLite-M™ assay (Packard BioSciences Co.), as previously described (Lecanu et al., cited above). In brief, cells were cultured on black 96-well ViewPlate™ and the ATP concentrations measured on a TopCount NXT™ counter (Packard BioSciences Co.) according to the manufacturer recommendations. The effect of Aβ1-42 was expressed in arbitrary units. To compare the potential protective effect of the compounds tested on ATP recovery, the decrease of ATP concentration induced by Aβ1-42 was considered to be 100% reduction and the effects of the compounds tested are shown as changes of this percentage.

PC12 cells [3] = experiment: Glutamate-induced excitotoxicity, cell viability by MTT assay; details: for prevention of glutamate-induced neurotoxicity: 24 h pre-treatment with compound 0.3-30 μM
Experimental: To study the role played by the NMDA receptor in the Aβ1-42-induced neurotoxicity, increasing concentrations of (+)-MK801 were added to the cell media immediately before Aβ1-42. Cell viability was assessed 4 hours later using the MTT assay. To assess the effect of procaine and SP008 on the glutamate-induced excitotoxicity, PC12 cells were pre-treated with procaine or SP008 at 0.3, 1, 3, 10 and 30 μM for 24 hours and then submitted to glutamate exposure for another 24 hour time period. Cell viability was subsequently assessed using the MTT assay. To assess the role of sodium channels in A8142-induced neurotoxicity, PC12 cells were incubated for 4 hours with the sodium-channel blocker TTX at 3, 30 or 300 μM followed by addition of Aβ1-42. Cell viability was assessed by MTT 24 hours later. The involvement of the oxidative stress in the toxicity of Aβ1-42 was assessed by incubating the PC12 in the presence of 10, 100 or 500 μM PBN for 24 hours. Aβ1-42 was then added to the incubation media. Cell viability was assessed by MTT 24 hours later.
as §2

For `CCN1CCN(C(=O)c2ccc(OC)c(OC)c2OC)CC1` [SP008, 4-Ethyl-1-(2,3,4-trimethoxybenzoyl)-piperazine], the “neuroprotection against Aβ1-42 (PC12 viability), general statement” value (from here on “neuroprotection … general statement”) (PC12 cells [1]) was “significant neuroprotective properties; also recorded: strong neuroprotective properties”, the “protective effect against Aβ1-42-induced cytotoxicity (MTT)” value (PC12 cells [1]; 0.1 μM Aβ1-42, compound at 10 μM, p<0.01) was “exerted a protective effect” and the “reduction of Aβ1-42-induced NADPH diaphorase inhibition (MTT)” value (PC12 cells [1]; 0.1 μM Aβ1-42, compound at 1 and 100 μM) was “did not reduce”. For the same compound, the “neuroprotective effects against Aβ1-42 (MTT)” value (PC12 cells [1]; 1 μM Aβ1-42, compound at 1 (p<0.05), 10 (p<0.01) and 100 μM (p<0.001)) was “demonstrated neuroprotective effects”, the “neuroprotective properties against Aβ1-42-induced toxicity (MTT)” value (PC12 cells [1]; 10 μM Aβ1-42, compound at 10 (p<0.05) and 100 μM (p<0.01)) was “displayed neuroprotective properties” and the “potency against Aβ1-42 compared with procaine” value (PC12 cells [1]; two highest concentrations of Aβ1-42) was “more potent than procaine”. The “preservation of intracellular ATP against Aβ1-42, general statement” value (from here on “preservation of intracellular ATP”) (PC12 cells [2]) was “preserved Aβ1-42-induced ATP depletion”, the “preservation of Aβ1-42-depleted ATP stock” value (PC12 cells [2]; 0.1 μM Aβ1-42, compound at 10 μM) was “did not preserve” and the “prevention of ATP decrease” value (PC12 cells [2]; 0.1 μM Aβ1-42, compound at 1 and 100 μM, p<0.05) was “prevented the ATP decrease”. For the same compound, the ATP preservation (PC12 cells [2]; 1 μM Aβ1-42, compound 1-100 μM) was “dose-dependent ATP preservation”, the “restoration of ATP levels” value (PC12 cells [2]; 10 μM Aβ1-42, only 100 μM compound statistically significant (p<0.01)) was “dose-dependent restoration of ATP levels” and the “prevention of Aβ1-42-induced intracellular ATP stock depletion” value (PC12 cells [2]; even against 10 μM Aβ1-42) was “prevent the Aβ1-42-induced intracellular ATP stock depletion”. The “inhibition of the neurotoxic effect of glutamate, general statement” value (PC12 cells [3]) was “inhibited the neurotoxic effect”, the “lowest concentration reducing glutamate-induced neurotoxicity” value (PC12 cells [3]) was 0.3 µM and the “prevention of glutamate-induced neurotoxicity” value (PC12 cells [3]; glutamate 100 μM) was “biphasic”. The “neuroprotective effect compared with procaine at the same concentration” value (PC12 cells [3]; glutamate 100 μM, p<0.001) was “more important than the procaine effect” and the “concentration of maximum (peak) protective effect” value (PC12 cells [3]; glutamate 100 μM, p<0.001 compared to control) was 3 µM.

`CC(=O)OC1CC(O)C2(C)C(OC(C)=O)C3C(CC(C)C12)OC(=O)C3CN1CCN(C(=O)c2ccccc2)CC1` (stereo not drawn) [SP015, Acetic acid 7-acetoxy-3-(4-benzoyl-piperazin-1-yl-methyl)-5-hydroxy-4a,8-dimethyl-2-oxo-dodecahydro-azuleno[6,5-b]furan-4-yl ester] was tested, and the “neuroprotection … general statement” value (PC12 cells [1]) was “neuroprotection”, the “neuroprotective effect on PC12 viability after Aβ1-42 exposure” value (PC12 cells [1]; compound at 1 and 10 μM, only against 10 μM Aβ1-42) was “displayed a neuroprotective effect” and the “preservation of intracellular ATP” value (PC12 cells [2]) was “preservation of the ATP cellular stocks”. For the same compound, the “protective effect on mitochondrial function / ATP content” value (PC12 cells [2]; highest Aβ1-42 concentration examined) was “important protection”.

For `CCN(CC)CCOC(=O)c1ccc(N)cc1` [procaine, reference compound], the “preservation of intracellular ATP” value (PC12 cells [2]) was “restore partially”, the “inhibition of the neurotoxic effect of glutamate, general statement” value (PC12 cells [3]) was “inhibited the neurotoxic effect” and the “prevention of glutamate-induced neurotoxicity” value (PC12 cells [3]; glutamate 100 μM) was “prevented the glutamate-induced neurotoxicity in a biphasic manner”.

With `CC(=O)OC1CC(OC(C)=O)C2(C)C(O)C3C(CC(C)C12)OC(=O)C3CN1CCN(C(=O)c2ccccc2)CC1` (stereo not drawn) [SP016, acetic acid 5-acetoxy-3-(4-benzoylpiperazin-1-yl-methyl)-4-hydroxy-4a,8-dimethyl-2-oxo-dodecahydro-azuleno[6,5-b]furan-7-yl ester] the “neuroprotection … general statement” value (PC12 cells [1]) was “no effect was observed”, the “preservation of intracellular ATP” value (PC12 cells [2]) was “preservation of the ATP cellular stocks” and the “protective effect on mitochondrial function / ATP content” value (PC12 cells [2]; low Aβ1-42 concentrations (0.1 μM)) was “significant effect”.

For `CC1=CCC23OC2(C)CCC2C(CN4CCN(C(=O)c5ccccc5)CC4)C(=O)OC2C13` (stereo not drawn) [SP017, 3-(4-benzoyl-piperazin-1-yl-methyl)-6,6a-epoxy-6,9-dimethyl-3a,4,5,6,6a,7,9a,9b-octahydro-3H-azuleno[4,5-b]furan-2-one], the “efficacy range, inhibition of Aβ1-42 toxicity (mitochondrial diaphorase activity)” value (PC12 cells [1]) was 30-70%, the “neuroprotection … general statement” value (PC12 cells [1]) was “highest protective effect; also recorded: neuroprotection” and the “preservation of intracellular ATP” value (PC12 cells [2]) was “preservation of the ATP cellular stocks”.
